Data published in patent publication US12558354B2, “Tumor necrosis factor alpha (TNF-alpha) small molecule inhibitor” (AJOU UNIVERSITY INDUSTRY-ACADEMIC COOPERATION FOUNDATION, priority 2019, dated 2026).
pIC50: −log10 of the molar value. Entries after “also recorded” stand apart in the source; their conditions may differ.

How the values were obtained:
TNF-α/TNFR1 interface = TNF-α/TNFR1 interface (Homo sapiens, UniProt P01375); details: target TNF-α/TNFR1 interface, literature; cited from earlier work
[1] = system: human dermal fibroblasts (HDFs); experiment: Cell viability (MTT) assay in human dermal fibroblasts; format: cell-based; details: HDFs, 24 hours
Description: FIG. 8A is a graph showing the effects of TIM1 and a solvent thereof, DMSO, on the viability of human dermal fibroblasts, in which cells (10^4/well) were treated with DMSO at 3 different concentrations (0.5, 1, and 2%) and TIM1 at 8 different concentrations (1, 3.125, 6.25, 12.5, 25, 50, 100, and 200 μM) for 24 hours, and the cell viability was monitored by an MTT assay. FIG. 8B is a graph showing the effect of TIM1 on the viability of a mouse fibrosarcoma cell line [L929 (1.5×10^4/well)] under the same conditions as in FIG. 8A. All experiments were independently performed 4 times, and mean±SEM of the independent experiments was calculated using a two-tailed paired Student's t-test (*P<0.05).
In order to measure cell viability, a colorimetric […] (MTT) assay (Sigma-Aldrich Co.) was performed. HDFs were seeded at a density of 10^4/well in 96-well plates (BD Biosciences, San Jose, CA, USA), grown overnight, and then treated with a test compound at various concentrations for 24 hours. The next day, the medium was replaced with a medium (100 μl/well) containing a 10% MTT solution, followed by incubated at 37° C. for 3 hours. This solution was replaced with DMSO (100 μl/well), and the plates were incubated at room temperature for 30 minutes. Thereafter, the plates were read at a wavelength of 540 nm using a microplate spectrophotometer system (Molecular Devices, Silicon Valley, California).

[2] = molecular target: T1, recombinant mouse TNF-α (rmTNF-α) (Mus musculus, UniProt P06804); experiment: Cell death attenuation assay, act-D-sensitized L929 cells with rmTNF-α; format: cell-based; details: act-D-sensitized L929, rmTNF-α 1 ng/ml, 1-100 μM
T1 construct: purchased Miltenyi Biotec
T1 sequence (P06804 80-235 limits assumed): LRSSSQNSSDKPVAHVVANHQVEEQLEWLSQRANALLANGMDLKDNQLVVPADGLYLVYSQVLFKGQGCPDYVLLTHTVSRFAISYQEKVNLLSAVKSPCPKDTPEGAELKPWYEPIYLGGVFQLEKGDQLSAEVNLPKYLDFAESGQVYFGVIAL
Description: HDFs (10^4/well) and L929 cell lines (1.5×10^4/well) were seeded in 96-well plates and grown overnight under appropriate conditions. The next day, HDFs and L929 cells were pretreated with 1 μg/ml act-D and 0.1 μg/ml act-D, respectively, followed by incubated for 30 minutes. Thereafter, a 1-hour-preincubated mixture of 10 ng/ml rhTNFα with test compounds or 1 ng/ml rmTNFα with test compounds, was applied to HDFs and L929 cells, respectively. The cells were incubated for 24 hours post-treatment, and survival was measured by the MTT assay. Cell viability was calculated with reference to the no-treatment control group. The obtained values were normalized with respect to the act-D treatment group and then used to calculate death attenuation (%) rate using the following equation: […]

[3] = molecular target: T2, recombinant human TNF-α (rhTNF-α) (Homo sapiens, UniProt P01375); experiment: TNF-α-mediated hIL-6 secretion in HDFs (ELISA); format: cell-based
T2 construct: purchased Miltenyi Biotec
Description: (§1) HDFs were seeded at a density of 10^4/well in a 96-well plate (BD Biosciences) and grown overnight. The cells were treated for 24 hours with a 1-hour-pre-incubated mixture of rhTNF-α and test compounds. IL-8 secretion was assessed by a human IL-8 uncoated ELISA kit (eBioscience, Inc., San Diego, CA, USA), and IL-6 secretion level was assessed by a human IL-6 ELISA MAX™ Deluxe kit (BioLegend, San Diego, CA, USA). The microtiter plates were then analyzed at an appropriate wavelength using a microplate spectrophotometer system (Molecular Devices, Silicon Valley, California).

[4] = molecular target: T2, recombinant human TNF-α (rhTNF-α); experiment: TNF-α-mediated hIL-8 secretion in HDFs (ELISA); format: cell-based; details: for inhibition of TNF-induced hIL-8, TIM1 derivatives compared with TIM1: HDFs, 1, 10 and 50 μM, rhTNF-α 1 ng/ml
Description: as §1

[5] = system: collagen-induced polyarthritis (CIA); experiment: Mouse model of collagen-induced polyarthritis (CIA), oral TIM1c; format: in vivo
Description: FIG. 6B is a graph showing body weight, FIG. 6C is a graph showing a squeaking number (the value 0 indicating no sign of pain), FIG. 6D is a graph showing an increase in paw volume, FIG. 6E is a graph showing an arthritis index, that is, the severity of mouse limb arthritis. The number of arthritic limbs was quantified, and each limb was assigned a severity score of 0-4, the data representing the number of arthritic limbs per arthritic mouse and the mean severity score of arthritis in each limb, black arrows representing the start date of drug administration, NOR, n=4; CIA, n=4; TIM1c_2 mg/ml, n=4; TIM1c_20 mg/ml, n=5, values being represented as means±SEM. #p<0.05, ##p<0.01, ###p<0.001 vs. NOR group and p<0.05, **p<0.01, ***p<0.001 vs. CIA group (two-way ANOVA followed by Bonferroni correction).
Male DBA/1J mice (20-23 g) were purchased from Central Lab. Animal Inc. (Seoul, Korea). Animals were housed in a limited-access rodent facility with a maximum of 4 animals per polycarbonate cage, with free access to pelleted food and water. The temperature was maintained at 22-24° C. with a 12/12-hour light/dark cycle. Animals were acclimatized for at least 1 week prior to starting the experiment. The number of animals used per experiment or test and the potential suffering were minimized. All methods were approved by the Animal Care and Use Committee of Kyung-Hee University, Korea. All procedures were executed in accordance to the Guide for the Care and Use of Laboratory Animals by the Korea National Institute of Health.
Male DBA/1J mice (6-week-old) were subcutaneously injected with 50 μl of an emulsion containing 100 μg of chicken collagen type II (Sigma-Aldrich Co., St. Louis, MO, USA) dissolved in 25 μl of acetic acid and 25 μl of a complete Freund's adjuvant (Sigma-Aldrich Co.) at the base of the tail thereof, and the day of the first immunization was defined as day 0. On Day 14, the mice were injected with a booster of 50 μl of the emulsion having the same composition as the first immunization, except that an incomplete Freund's adjuvant was used. All mice were randomly divided into 4 experimental groups: non-treated normal group (NOR, n=4), collagen-injected and vehicle-treated arthritis control group (CIA, n=4), 2 mg/kg TIM1c-treated arthritis group (TIM1c 2 mg/ml, n=4), and 20 mg/kg TIM1c-treated arthritis group (TIM1c 20 mg/ml, n=5). The treatment groups were orally fed 2 or 20 mg/kg of TIM1c every 2 days from day 15 to day 60 after the first immunization.
In order to evaluate the progression of arthritis in CIA mice, four parameters (body weight, paw volume increase, squeaking score, and arthritis score) were measured after the first immunization with collagen and complete Freund's adjuvant. The body weights of the mice were measured using a digital balance (Mettler-Toledo Inc., Columbus, OH, USA). In order to assess nociception and hyperalgesia, ankle pain was evaluated on a scale measuring squeaking. Squeaking included any vocalization evoked by ankle flexion and extension. The flexion and extension procedures were repeated 10 times every 5 seconds, and the mouse was rated 0 (no vocalization) or 1 (vocalization) for each hindlimb thereof. The total number of vocalizations detected by the observer was counted as the number of squeaks. Paw swelling was measured by volume displacement of an electrolyte solution using a water-displacement plethysmometer (Ugo-Basil Biological Research Apparatus Co., Comerio-Varese, Italy), as previously described (Bang J. S. et al. (2009) Arthritis Res. Ther. 11(2):R49). The hindlimbs were immersed to the line of the hairy skin, and the volumes thereof were read on a digital display. The increase in paw volume was represented compared to day 0, which was defined as zero. […]

[6] = HDFs, 1, 10, 50 and 100 μM, 24 hours

T2 sequence (P01375 77-233 limits assumed): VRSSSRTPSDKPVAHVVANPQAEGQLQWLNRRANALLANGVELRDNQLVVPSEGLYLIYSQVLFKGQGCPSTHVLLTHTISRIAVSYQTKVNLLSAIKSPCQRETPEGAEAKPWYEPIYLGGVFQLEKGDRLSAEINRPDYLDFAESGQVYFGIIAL
Chain of TNF-α/TNFR1 interface (P01375 77-233 limits assumed, species assumed): as the sequence (P01375 77-233 limits assumed) above

C=C1C(=O)O[C@@H]2C[C@@H](C)[C@]34C[C@]5(C(=O)O[C@H]6C[C@@]7(C)C(=C[C@H]65)[C@H](C)CC[C@@H]7O)[C@H](C(C)=C3C[C@@H]12)[C@@H]4OC(C)=O [Japonicone A]
pIC50 (TNF-α/TNFR1 interface): ~5.00

Cc1cc2occ(CN(C)CCN(C)Cc3cn(-c4cccc(C(F)(F)F)c4)c4ccccc34)c(=O)c2cc1C [SPD304, reference compound]
cytotoxicity (cell viability, MTT assay) [1]: showed cytotoxicity; also recorded: severe cytotoxicity at high concentrations; also recorded: strong cytotoxicity at concentrations exceeding 1 μM; also recorded: significant cytotoxic effects were exhibited at concentrations of 10, 50 or 100 μM | inhibition of rmTNF-α-mediated proapoptotic pathway / cell death [2]: did not reduce the death of these cells at concentrations other than 1 μM | secretion of hIL-6 at 10 μM ([3]; HDFs, 10 μM): increase the secretion of cytokines | secretion of hIL-6 at 50 μM ([3]; HDFs, 50 μM): completely inhibited | inhibition of TNF-α-mediated hIL-6 secretion [3, 6]: weak at 10 μM but stronger at 1 μM | secretion of hIL-8 at 10 μM ([4]; HDFs, 10 μM): increase the secretion of cytokines | secretion of hIL-8 at 50 μM ([4]; HDFs, 50 μM): completely inhibits | inhibition of TNF-α-mediated hIL-8 secretion [4, 6]: weak at 10 μM but stronger at 1 μM

CCCn1c(C)cc(-c2csc(NC(=O)c3nn(CC)c(=O)c4ccccc34)n2)c1C [TIM1-7, N-[4-(2,5-dimethyl-1-propylpyrrol-3-yl)-1,3-thiazol-2-yl]-3-ethyl-4-oxophthalazine-1-carboxamide]
cytotoxicity (cell viability, MTT assay) [1]: negligible cytotoxicity | inhibition of TNF-induced hIL-8, TIM1 derivatives compared with TIM1 ([4]; 24 hours): concentration-dependent inhibition of TNF-induced hIL-8 greater than that of TIM1

Cc1csc(N(C(=O)c2nn(C)c(=O)c3ccccc23)c2ccccc2)n1 [TIM1-10, 3-methyl-N-(4-methy1-1,3-thiazol-2-yl)-4-oxo-N-phenylphthalazine-1-carboxamide]
cytotoxicity (cell viability, MTT assay) [1]: negligible cytotoxicity | inhibition of TNF-induced hIL-8, TIM1 derivatives compared with TIM1 ([4]; 24 hours): concentration-dependent inhibition of TNF-induced hIL-8 greater than that of TIM1

CCCCCCn1nc(C(=O)Nc2nc3ccccc3s2)c2ccccc2c1=O [TIM1-11, N-(1,3-benzothiazol-2-yl)-3-hexyl-4-oxophthalazine-1-carboxamide]
cytotoxicity (cell viability, MTT assay) [1]: negligible cytotoxicity | inhibition of TNF-induced hIL-8, TIM1 derivatives compared with TIM1 ([4]; 24 hours): concentration-dependent inhibition of TNF-induced hIL-8 greater than that of TIM1

Cc1cc(-c2csc(NC(=O)c3nn(C)c(=O)c4ccccc34)n2)c(C)n1CCc1ccccc1 [TIM1-14, N-{4-[2,5-dimethyl-1-(2-phenylethyl)pyrrol-3-yl]-1,3-thiazol-2-yl}-3-methyl-4-oxophthalazine-1-carboxamide]
cytotoxicity (cell viability, MTT assay) [1]: negligible cytotoxicity | inhibition of TNF-induced hIL-8, TIM1 derivatives compared with TIM1 ([4]; 24 hours): concentration-dependent inhibition of TNF-induced hIL-8 greater than that of TIM1

CCCNc1nc(-c2cc(C)n(NC(=O)c3nn(C)c(=O)c4ccccc34)c2C)cs1.Cl [TIM1c, N-{2,5-dimethyl-3-[2-(propylamino)-1,3-thiazol-4-yl]pyrrol-l-yl}-3-methyl-4-oxophthalazine-1-carboxamide hydrochloride]
disease severity at low dose ([5]; 2 mg/kg/2 days): slightly ameliorate disease severity | induction of RA at high dose ([5]; 20 mg/kg/2 days): significantly decreased to such an extent that the limbs of the animals were almost identical to those of the normal group | body weight ([5]; 2 or 20 mg/kg every 2 days): weight gain | paw volume ([5]; 2 or 20 mg/kg every 2 days): paw volume decrease | RA symptoms versus CIA mice ([5]; 2 or 20 mg/kg every 2 days, day 15 to day 60): Dose-dependent amelioration | number of squeaks ([5]; CIA mice): inhibited | arthritis index (clinical score) ([5]; treatment group versus CIA): significantly decreased | cytotoxicity (cell viability, MTT assay) [1]: negligible cytotoxicity | inhibition of TNF-induced hIL-8, TIM1 derivatives compared with TIM1 ([4]; 24 hours, hydrochloride): concentration-dependent inhibition of TNF-induced hIL-8 greater than that of TIM1; also recorded: maximally inhibited

Cc1cc(-c2csc(N(C)C)n2)c(C)n1NC(=O)c1nn(C)c(=O)c2ccccc12 [TIM1d, N-{3-[2-(dimethylamino)-1,3-thiazol-4-yl]-2,5-dimethylpyrrol-1-yl}-3-methyl-4-oxophthalazine-1-carboxamide]
cytotoxicity (cell viability, MTT assay) [1]: negligible cytotoxicity | inhibition of TNF-induced hIL-8, TIM1 derivatives compared with TIM1 ([4]; 24 hours): concentration-dependent inhibition of TNF-induced hIL-8 greater than that of TIM1

Erythrosine B
pIC50 (TNF-α/TNFR1 interface): 5.30
